# Legend:
# [1] = tested on: prolyl hydroxylase domain 2 (PHD2); details: HepG2 cells, 250 μM manganese
# Method: (§1) Quantitative RT-PCR assays. RNA extraction from HepG2 cells and mouse tissue, reverse transcription to cDNA, and qRT-PCR analyses were performed as described by us previously (47, 50). For analyses of mouse brain samples, a part of the midbrain, including the basal ganglia, was used. Transcript levels were quantified using the ΔΔCT method with 18S (in mice) or TBP (in HepG2 cells) as the internal control, also as described by us previously (47, 50).
# C57BL/6J mice = details: ~30 mg manganese/kg daily in drinking water, 4 weeks
# Method: To assay for the protective effect of roxadustat, animals were exposed to roxadustat or vehicle with or without manganese in drinking water from ˜4 weeks of age. Treatment lasted for 4 weeks from initiation. Roxadustat (Selleckchem) was prepared as a 50 mg/ml stock solution in DMSO, then diluted to 1 mg/ml in sterile phosphate buffered saline (PBS), and delivered by daily i.p. injection at 10 mg/kg. Vehicle was 2% DMSO in PBS. For this experiment, drinking water manganese levels were adjusted to 0.138 mg absolute manganese/ml so that animals received ˜30 mg absolute manganese/kg daily. A higher level of manganese was used because exposure was initiated after weaning, which was necessary because daily i.p. injections for roxadustat delivery were not possible in the pre-weaning period.
# (§2) Animals were euthanized using carbon dioxide and tissue dissected for qRT-PCR or ICPMS analyses as described by us previously (50).
# Inductively coupled plasma mass spectrometry. Metal measurements using ICP-MS were performed exactly as described by us previously (47, 50, 51, 99).
# SLC30A10 = details: HepG2 cells, 250 μM manganese, immunoblot
# Method: Immunoblots. HepG2 cells were cultured in 35 mm dishes, treated with or without manganese, MG132 and/or prolyl hydroxylase inhibitors, and scrapped using 200 μl of RIPA buffer (50 mM Tris-HCl, pH7.4; 150 mM NaCl; 1Mm EDTA; 1% Triton; 0.25% sodium deoxycholate; protease inhibitors cocktail (Thermo A32953)). Whole-cell lysates were prepared by adding loading buffer (50 mM Tris-HCl, pH 7.4; 2% sodium dodecyl sulfate; 10% glycerol, 0.1 M dithiothreitol; 0.01% (weight/volume) bromophenol blue) and boiling the samples for 5 min. Equal volumes of samples were loaded per lane. Further processing was as described by us previously (47). Images were quantified using ImageQuant TL software (GE).
# Antibodies and chemicals. The inventors used the following commercial primary antibodies in this study: rabbit polyclonal anti-HIF1α (Abcam, Ab2185), rabbit polyclonal anti-HIF2α (Novus, NB100-122), rabbit monoclonal anti-HIF1α proline 564 (Cell signaling, 3434S), and mouse monoclonal anti-tubulin (Sigma, T5168). […] Sources of chemicals not provided elsewhere were Thermo Fisher Scientific or Sigma-Aldrich.
# SLC30A10 promoter = type: cell-based, human
# Description: A luciferase reporter plasmid containing the proximal promoter of human SLC30A10 has been previously described and was a gift of Dr. Ruth Valentine (100). The promoter fragment corresponding to bases −679 to +211 relative to the start of transcription was sub-cloned into the Xho1 and SpeI sites of pRRLSIN.cPPTLuciferase.WPRE vector (Addgene, #69251), which is a luciferase vector for lentivirus infections. Deletion mutants were generated using the loop-out modification of the QuikChange protocol.
# Lentiviral infections. Stable cells were generated by lentivirus infection essentially as described by us previously (49, 98). Briefly, lentivirus was produced in HEK293T cells by co-transfecting transfer plasmids described above with plasmids coding for a third generation packing system that is routinely used (pRSV-Rev, pRRE, and pCMV-VSVG) (49, 98). Viral supernatants were collected 40-48 h post-transfection. HepG2 cells for infection were plated in a 60 mm dish 24 h before infection so that cells reached a confluence of 30% on the day of infection. Collected viral supernatants were filtered through a 0.45-μm polyvinylidene difluoride filter, and cells were incubated with a 1:2 dilution of viral supernatant containing 5 μg/mL Polybrene (Santa Cruz). […]
# SLC39A14 = details: oral manganese ~15 mg/kg daily from birth until 8 weeks
# Method: (§3) A well-characterized drinking water-based manganese exposure regimen was used to model human environmental manganese exposure by providing mice with ˜50 mg manganeseCl2.4H2O/kg body weight daily (˜15 mg absolute manganese/kg per day) from birth until 8 weeks of age. This, and related similar, dosing regimens: 1) approximate the increase in manganese exposure in humans consuming well water contaminated with 1.5 mg manganese/L, which is the median well water concentration associated with neurological deficits in children; 2) increase brain manganese levels by ˜2-3 fold, similar to human patients; 3) produce measurable neurobehavioral deficits without overt toxicity; and 4) model exposure to manganese in developmentally-sensitive early-life and adolescent periods (11). Pre-weaning manganese was delivered by pipette directly into the mouth, and post-weaning manganese was delivered in drinking water using procedures described in detail in ref. (11). In brief, pre-weaning dosing was adjusted to each animal's body weight. For this, a stock solution of 69.2 mg absolute manganese/ml prepared in milliQ water was diluted in milliQ water containing 2.5% (wt/vol) of the natural sweetener Stevia (to facilitate intake by pups), and the required manganese amount (0.2 μl manganese stock/g body weight) was delivered in a dose of ˜5-10 μl/animal. For post-weaning exposure, a 27.7 mg absolute manganese/ml stock solution was prepared in water and diluted to 0.069 mg absolute manganese/ml in drinking water, which provided mice with ˜15 mg absolute manganese/kg per day based on a daily water intake of ˜2-5 ml/mouse depending on age.
# as §2, §1
# SLC39A8 = details: oral manganese ~15 mg/kg daily from birth until 8 weeks
# Method: as §3, §2, §1
structure (smiles),measurement,setting,value
"O.O.O.O.[Cl][Mn][Cl] [manganese, manganeseCl2.4H2O]",PHD2 levels in manganese-treated cells,[1],elevated
same,Blood manganese after manganese treatment,C57BL/6J mice,trend towards an increase
same,"Brain manganese levels, main effect of manganese treatment",C57BL/6J mice,increasing
same,SLC30A10 protein levels after manganese,SLC30A10,increased
same,Luciferase activity after manganese,SLC30A10 promoter,increased
same,Hepatic and brain SLC39A14 levels,SLC39A14; 129S4/SvJaeJ mice,elevated
same,Intestinal SLC39A14 levels,SLC39A14; C57BL/6J mice,enhanced
same,Hepatic and brain SLC39A8 levels,SLC39A8; 129S4/SvJaeJ mice,elevated
same,Intestinal SLC39A8 levels,SLC39A8; either strain,did not change

# Reference: patent US20230101768A1, “METHOD TO TREAT MANGANESE TOXICITY AND MANGANESE-INDUCED PA[…] HUMANS” (priority 2021, published 2023)
